Assays:
Experiment in all cases: relative viability (nuclei count vs DMSO), 5 days (fraction); higher = more cells survive
NCI-H1666 = tested on: NCI-H1666
In short: (§1)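 Relative viability is defined as nuclei in treated wells over nuclei in vehicle wells. Duplicate plates were run and medians reported. Lung cancer cell lines in 1536-well plates were dosed by pin tool one day after seeding, with one drug or with a fixed anchor-drug dose plus five library-drug doses (not always all listed) in √10 steps, and nuclei were counted after 5 days.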

NCI-H727 = tested on: NCI-H727
In short: as §1

NCI-H1650 = tested on: NCI-H1650
In short: as §1

HARA = tested on: HARA
In short: as §1

BEN = tested on: BEN
In short: as §1

NCI-H2170 = tested on: NCI-H2170
In short: as §1

COR-L 105 = tested on: COR-L 105
In short: as §1

NCI-H2009 = tested on: NCI-H2009
In short: as §1

EKVX = tested on: EKVX
In short: as §1

NCI-H661 = tested on: NCI-H661
In short: as §1

ABC-1 = tested on: ABC-1
In short: as §1

## Nc1ccn([C@@H]2O[C@H](CO)[C@@H](O)[C@@H]2O)c(=O)n1 [Cytarabine] + Cc1nc(Nc2ncc(C(=O)Nc3c(C)cccc3Cl)s2)cc(N2CCN(CCO)CC2)n1 [Dasatinib] (partner 0.075 µM)
NCI-H1666; first compound 0.005 µM
  relative viability: 0.773
NCI-H1666; first compound 0.01581 µM
  relative viability: 0.725
NCI-H1666; first compound 0.05 µM
  relative viability: 0.642
NCI-H1666; first compound 0.1581 µM
  relative viability: 0.396
NCI-H1666; first compound 0.5 µM
  relative viability: 0.394
NCI-H727; first compound 0.005 µM
  relative viability: 0.319
NCI-H727; first compound 0.01581 µM
  relative viability: 0.303
NCI-H727; first compound 0.05 µM
  relative viability: 0.447
NCI-H727; first compound 0.1581 µM
  relative viability: 0.271
NCI-H727; first compound 0.5 µM
  relative viability: 0.294
NCI-H1650; first compound 0.005 µM
  relative viability: 0.257
NCI-H1650; first compound 0.01581 µM
  relative viability: 0.234
NCI-H1650; first compound 0.05 µM
  relative viability: 0.177
NCI-H1650; first compound 0.1581 µM
  relative viability: 0.136
NCI-H1650; first compound 0.5 µM
  relative viability: 0.122
HARA; first compound 0.005 µM
  relative viability: 0.309
HARA; first compound 0.01581 µM
  relative viability: 0.222
HARA; first compound 0.05 µM
  relative viability: 0.227
HARA; first compound 0.1581 µM
  relative viability: 0.0854
HARA; first compound 0.5 µM
  relative viability: 0.0721
BEN; first compound 0.005 µM
  relative viability: 0.332
BEN; first compound 0.01581 µM
  relative viability: 0.312
BEN; first compound 0.05 µM
  relative viability: 0.204
BEN; first compound 0.1581 µM
  relative viability: 0.175
BEN; first compound 0.5 µM
  relative viability: 0.213
NCI-H2170; first compound 0.005 µM
  relative viability: 0.576
NCI-H2170; first compound 0.01581 µM
  relative viability: 0.589
NCI-H2170; first compound 0.05 µM
  relative viability: 0.533
NCI-H2170; first compound 0.1581 µM
  relative viability: 0.244
NCI-H2170; first compound 0.5 µM
  relative viability: 0.241
COR-L 105; first compound 0.005 µM
  relative viability: 0.314
COR-L 105; first compound 0.01581 µM
  relative viability: 0.311
COR-L 105; first compound 0.05 µM
  relative viability: 0.293
COR-L 105; first compound 0.1581 µM
  relative viability: 0.196
COR-L 105; first compound 0.5 µM
  relative viability: 0.187
NCI-H2009; first compound 0.005 µM
  relative viability: 0.304
NCI-H2009; first compound 0.01581 µM
  relative viability: 0.275
NCI-H2009; first compound 0.05 µM
  relative viability: 0.295
NCI-H2009; first compound 0.1581 µM
  relative viability: 0.192
NCI-H2009; first compound 0.5 µM
  relative viability: 0.146
EKVX; first compound 0.005 µM
  relative viability: 0.567
EKVX; first compound 0.01581 µM
  relative viability: 0.416
EKVX; first compound 0.05 µM
  relative viability: 0.456
EKVX; first compound 0.1581 µM
  relative viability: 0.357
EKVX; first compound 0.5 µM
  relative viability: 0.273
NCI-H661; first compound 0.005 µM
  relative viability: 0.636
NCI-H661; first compound 0.01581 µM
  relative viability: 0.529
NCI-H661; first compound 0.05 µM
  relative viability: 0.516
NCI-H661; first compound 0.1581 µM
  relative viability: 0.358
NCI-H661; first compound 0.5 µM
  relative viability: 0.283
ABC-1; first compound 0.005 µM
  relative viability: 0.501
ABC-1; first compound 0.01581 µM
  relative viability: 0.492
ABC-1; first compound 0.05 µM
  relative viability: 0.564
ABC-1; first compound 0.1581 µM
  relative viability: 0.473
